Experimental data as given in ChEMBL document CHEMBL6177973, “A Novel Compound 3a-M1, from Metabolites of Sinomenine Derivative 3a, Exerts Potent Anti-Aplastic Anemia Activity via IP3R/ORAI-Mediated CTL Ferroptosis” (J Med Chem, 2025).
The source made the active and inactive calls. The rule behind the calls is not given here.

Assays:
[1] = Stability in rat plasma at 50 mg/kg, po measured for 24 hrs by HPLC analysis; assay type: ADME, organism-based; conditions: in vivo
[2] = Drug metabolism in rat plasma assessed as hydrolyzation/demethylation-mediated metabolite formation at 50 mg/kg, po measured for 24 hrs by HRMS analysis; assay type: ADME, organism-based; conditions: in vivo
[3] = Drug metabolism in rat plasma assessed as double hydrolyzation/hydroxylation-mediated metabolite formation at 50 mg/kg, po measured for 24 hrs by HRMS analysis; assay type: ADME, organism-based; conditions: in vivo
[4] = Drug metabolism in rat plasma assessed as hydrolyzation/demethylation/hydroxylation-mediated metabolite formation at 50 mg/kg, po measured for 24 hrs by HRMS analysis; assay type: ADME, organism-based; conditions: in vivo
[5] = Drug metabolism in rat plasma assessed as double hydrolyzation/double demethylation-mediated metabolite formation at 50 mg/kg, po measured for 24 hrs by HRMS analysis; assay type: ADME, organism-based; conditions: in vivo
[6] = Drug metabolism in mouse plasma assessed as (4bR,9S)-1-(hydroxymethyl)-3,7-dimethoxy-11-methyl-6-oxo-6,8a,9,10-tetrahydro-5H-9,4b-(epiminoethano)phenanthren-4-yl cinnamate metabolite formation administered orally by HRMS analysis; assay type: ADME; conditions: po
[7] = Drug metabolism in mouse blood assessed as (4bR,9S)-1-(hydroxymethyl)-3,7-dimethoxy-11-methyl-6-oxo-6,8a,9,10-tetrahydro-5H-9,4b-(epiminoethano)phenanthren-4-yl cinnamate metabolite formation at 50 mg/kg, po measured for 0.083 to 8 hrs by HPLC analysis; assay type: ADME, organism-based; conditions: in vivo, time 0.083-8 hrs
[8] = Drug metabolism in mouse liver assessed as (4bR,9S)-1-(hydroxymethyl)-3,7-dimethoxy-11-methyl-6-oxo-6,8a,9,10-tetrahydro-5H-9,4b-(epiminoethano)phenanthren-4-yl cinnamate metabolite formation at 50 mg/kg, po measured for 0.083 to 8 hrs by HPLC analysis; assay type: ADME, organism-based; conditions: in vivo, time 0.083-8 hrs
[9] = Stability in mouse lymph node assessed as compound remaining at 50 mg/kg, po measured for 0.083 to 8 hrs by HPLC analysis; assay type: ADME, organism-based; conditions: in vivo, time 0.083-8 hrs
[10] = Stability in mouse spleen assessed as compound remaining at 50 mg/kg, po measured for 0.083 to 8 hrs by HPLC analysis; assay type: ADME, organism-based; conditions: in vivo, time 0.083-8 hrs
[11] = Drug metabolism in mouse blood assessed as cinnamic acid metabolite formation at 50 mg/kg, po measured for 0.083 to 8 hrs by HPLC analysis; assay type: ADME, organism-based; conditions: in vivo, time 0.083-8 hrs
[12] = Drug metabolism in mouse lymph node assessed as cinnamic acid metabolite formation at 50 mg/kg, po measured for 0.083 to 8 hrs by HPLC analysis; assay type: ADME, organism-based; conditions: in vivo, time 0.083-8 hrs
[13] = Drug metabolism in mouse spleen assessed as cinnamic acid metabolite formation at 50 mg/kg, po measured for 0.083 to 8 hrs by HPLC analysis; assay type: ADME, organism-based; conditions: in vivo, time 0.083-8 hrs
[14] = Drug metabolism in mouse liver assessed as cinnamic acid metabolite formation at 50 mg/kg, po measured for 0.083 to 8 hrs by HPLC analysis; assay type: ADME, organism-based; conditions: in vivo, time 0.083-8 hrs
[15] = Cmax in Sprague-Dawley rat at 50 mg/kg, po measured for 0.083 to 24 hrs by HPLC analysis; assay type: ADME, organism-based; conditions: in vivo, time 0.083-24 hrs
[16] = AUC in Sprague-Dawley rat at 50 mg/kg, po measured for 0.083 to 24 hrs by HPLC analysis; assay type: ADME, organism-based; conditions: in vivo, time 0.083-24 hrs
[17] = Acute toxicity in 12 hr-fasted KM mouse assessed as maximum tolerable dose administered orally as single dose measured for 14 days; conditions: in vivo, route po, time 14 day
[18] = test system: Mus musculus; experiment: Anti-aplastic anemia activity in BALB/c mouse model of immune-mediated bone marrow failure assessed as increase in body weight at 10 mg/kg, po treated for 14 days; assay type: functional, organism-based; conditions: time 14.0 day
[19] = test system: Mus musculus; experiment: Anti-aplastic anemia activity in C57BL/6J mouse model of immune-mediated bone marrow failure assessed as increase in body weight at 5 to 15 mg/kg, IG qd treated for 21 days; assay type: functional, organism-based; conditions: dose 5-15 mg/kg, time 21.0 day
[20] = test system: Mus musculus; experiment: Anti-aplastic anemia activity in C57BL/6J mouse model of immune-mediated bone marrow failure assessed as CD8+ T cells at 10 mg/kg, IG qd treated for 12 days by flow cytometry (reference value: 72.15 %); assay type: functional; conditions: time 12 day
[21] = test system: Mus musculus; experiment: Anti-aplastic anemia activity in C57BL/6J mouse model of immune-mediated bone marrow failure assessed as CD4+ T cells at 15 mg/kg, IG qd treated for 12 days by flow cytometry (reference value: 12.93 %); assay type: functional; conditions: time 12 day
[22] = test system: Mus musculus; experiment: Anti-aplastic anemia activity in C57BL/6J mouse model of immune-mediated bone marrow failure assessed as reduction in proportion of effector CD8+ T cells at 5 to 15 mg/kg, IG qd treated for 12 days by flow cytometry; assay type: functional, organism-based; conditions: dose 5-15 mg/kg, time 12.0 day
[23] = test system: Mus musculus; experiment: Anti-aplastic anemia activity in C57BL/6J mouse model of immune-mediated bone marrow failure assessed as increase in memory CD8+ T cells at 5 to 15 mg/kg, IG qd treated for 12 days by flow cytometry; assay type: functional, organism-based; conditions: dose 5-15 mg/kg, time 12.0 day
[24] = test system: CD8-positive T cell; experiment: Inhibition of CD3/CD28-activated CD8-positive T cell activation in BALB/c mouse lymph nodes assessed as decrease in cluster formation of cells at 1 to 10 uM incubated for 72 hrs by microscopy; assay type: functional, cell-based; conditions: Lymph node, dose 1-10 µM
[25] = test system: CD8-positive T cell; experiment: Inhibition of CD3/CD28-activated CD8-positive T cell activation in BALB/c mouse lymph nodes assessed as decrease in glucose consumption at 1 to 10 uM incubated for 72 hrs; assay type: functional, tissue-based; conditions: Lymph node, dose 1-10 µM
[26] = test system: CD8-positive T cell; experiment: Inhibition of CD3/CD28-activated CD8-positive T cell proliferation in BALB/c mouse lymph nodes incubated for 72 hrs by CFSE staining based flow cytometry; assay type: functional, tissue-based; conditions: Lymph node, dose 1-10 µM
[27] = test system: RAW264.7; experiment: Cytotoxicity against mouse RAW264.7 cells assessed as inhibition of cell viability incubated for 72 hrs by CCK8 assay; assay type: functional, cell-based; conditions: RAW264.7, 72 h
[28] = test system: CTLL-2; experiment: Induction of ferroptosis in mouse CTLL-2 cells assessed as increase in free Fe2+ level incubated for 16 hrs by FerroOrange staining based flow cytometry; assay type: functional, cell-based; conditions: dose 7.5-30 µM
[29] = test system: CTLL-2; experiment: Induction of ferroptosis in IL-2-stimulated mouse CTLL-2 cells assessed as increase in ROS level at 30 uM incubated for 6 hrs followed by Fer-1 addition measured after 10 hrs by DCFH-DA staining based flow cytometry; assay type: functional, cell-based; conditions: time 16.0 hrs
[30] = test system: CTLL-2; experiment: Induction of ferroptosis in IL-2-stimulated mouse CTLL-2 cells assessed as increase in mitochondrial superoxide level at 30 uM incubated for 6 hrs followed by Fer-1 addition measured after 10 hrs by MitoSOX Red staining based fluorescent microscopy; assay type: functional, cell-based; conditions: time 16.0 hrs
[31] = test system: CTLL-2; experiment: Induction of ferroptosis in mouse CTLL-2 cells assessed as increase in intracellular Ca2+ concentration at 10 uM incubated for 60 mins in presence of EDTA by Fluo-4 AM dye based analysis; assay type: functional, cell-based
[32] = test system: CTLL-2; experiment: Induction of ferroptosis in mouse CTLL-2 cells assessed as increase in ROS level at 10 uM incubated for 45 mins in presence of 2-APB; assay type: functional, cell-based
[33] = test system: CTLL-2; experiment: Induction of ferroptosis in mouse CTLL-2 cells assessed as increase in ROS level at 10 uM incubated for 45 mins in presence of CM4620; assay type: functional, cell-based
[34] = test system: NRK-52E; experiment: Induction of ferroptosis in rat NRK-52E cells assessed as increase in intracellular Ca2+ concentration at 10 uM by Fluo-4 AM dye based analysis; assay type: functional, cell-based

## COC1=C[C@@H]2[C@@H]3Cc4c(COC(=O)/C=C/c5ccccc5)cc(OC)c(OC(=O)/C=C/c5ccccc5)c4[C@]2(CCN3C)CC1=O
[1]
  Stability: Unstable
[2]
  Drug metabolism: metabolite_detected
[3]
  Drug metabolism: metabolite_detected
[4]
  Drug metabolism: metabolite_detected
[5]
  Drug metabolism: metabolite_detected
[6]
  Drug metabolism: metabolite_detected
[7]
  Drug metabolism: metabolite_detected
[8]
  Drug metabolism: metabolite_detected
[9]
  Stability: Unstable
[10]
  Stability: Unstable
[11]
  Drug metabolism: metabolite_detected
[12]
  Drug metabolism: metabolite_detected
[13]
  Drug metabolism: metabolite_detected
[14]
  Drug metabolism: metabolite_detected

## COC1=C[C@@H]2[C@@H]3Cc4c(CO)cc(OC)c(OC(=O)/C=C/c5ccccc5)c4[C@]2(CCN3C)CC1=O
[15]
  Cmax: 3590 ng/mL
[16]
  AUC: 15400 ng·h/mL
[17]
  MTD at 336 h: > 10000 mg/kg
[18]
  Activity: Active
[19]
  Activity: Active
[20]
  Activity: 38.55%
[21]
  Activity: 37.87%
[22]
  Activity: Active
[23]
  Activity: Active
[24]
  inhibition: Active
[25]
  inhibition: Active
[26]
  inhibition: Dose-dependent-effect
[27]
  IC50: 492 µM
[28]
  Activity: Dose-dependent-effect
[29]
  Activity: inactive
[30]
  Activity: inactive
[31]
  Activity: Active
[32]
  Activity: inactive
[33]
  Activity: inactive
[34]
  Activity: Not active; Elevation Was Smaller Than In Mouse Ctll-2 Cells
